Experimental data from the supplement of paper PMC10307832.

What was measured:
Assay in all cases: relative viability (nuclei count vs DMSO), 5 days (fraction); higher = more cells survive
Erlotinib + Palbociclib = compound: C#Cc1cccc(Nc2ncnc3cc(OCCOC)c(OCCOC)cc23)c1 [Erlotinib] + CC(=O)c1c(C)c2cnc(Nc3ccc(N4CCNCC4)cn3)nc2n(C2CCCC2)c1=O [Palbociclib] (partner 0.5 µM)
In short: (§1)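 One day after seeding in 1536-well plates, lung cancer cell lines were dosed by pin tool. Dosing was either single-drug or a fixed anchor-drug dose plus five library-drug doses (not always all listed) in √10 steps. After 5 days, nuclei were stained in one fix-and-stain step and counted on 4× images, and relative viability is the nuclei count of treated wells over that of vehicle wells, given as the median of duplicate plates.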

Erlotinib + Navitoclax = compound: C#Cc1cccc(Nc2ncnc3cc(OCCOC)c(OCCOC)cc23)c1 [Erlotinib] + CC1(C)CCC(c2ccc(Cl)cc2)=C(CN2CCN(c3ccc(C(=O)NS(=O)(=O)c4ccc(N[C@H](CCN5CCOCC5)CSc5ccccc5)c(S(=O)(=O)C(F)(F)F)c4)cc3)CC2)C1 [Navitoclax] (partner 0.5 µM)
In short: as §1

AT9283 + Palbociclib = compound: O=C(Nc1c[nH]nc1-c1nc2ccc(CN3CCOCC3)cc2[nH]1)NC1CC1 [AT9283] + CC(=O)c1c(C)c2cnc(Nc3ccc(N4CCNCC4)cn3)nc2n(C2CCCC2)c1=O [Palbociclib] (partner 0.5 µM)
In short: as §1

AT9283 + Linsitinib = compound: O=C(Nc1c[nH]nc1-c1nc2ccc(CN3CCOCC3)cc2[nH]1)NC1CC1 [AT9283] + C[C@]1(O)C[C@@H](c2nc(-c3ccc4ccc(-c5ccccc5)nc4c3)c3c(N)nccn32)C1 [Linsitinib] (partner 1 µM)
In short: as §1

AT9283 + Phenformin = compound: O=C(Nc1c[nH]nc1-c1nc2ccc(CN3CCOCC3)cc2[nH]1)NC1CC1 [AT9283] + N=C(N)NC(=N)NCCc1ccccc1 [Phenformin] (partner 250 µM)
In short: as §1

H3255
relative viability (Erlotinib + Palbociclib; first compound 0.02 µM): 0.31 | relative viability (Erlotinib + Palbociclib; first compound 0.2 µM): 0.325 | relative viability (Erlotinib + Palbociclib; first compound 0.6325 µM): 0.275 | relative viability (Erlotinib + Palbociclib; first compound 2 µM): 0.251 | relative viability (Erlotinib + Navitoclax; first compound 0.02 µM): 0.449 | relative viability (Erlotinib + Navitoclax; first compound 0.2 µM): 0.147 | relative viability (Erlotinib + Navitoclax; first compound 0.6325 µM): 0.0899 | relative viability (Erlotinib + Navitoclax; first compound 2 µM): 0.0743 | relative viability (AT9283 + Palbociclib; first compound 0.003 µM): 0.337 | relative viability (AT9283 + Palbociclib; first compound 0.03 µM): 0.316 | relative viability (AT9283 + Palbociclib; first compound 0.09487 µM): 0.323 | relative viability (AT9283 + Palbociclib; first compound 0.3 µM): 0.284 | relative viability (AT9283 + Linsitinib; first compound 0.003 µM): 0.877 | relative viability (AT9283 + Linsitinib; first compound 0.03 µM): 0.91 | relative viability (AT9283 + Linsitinib; first compound 0.09487 µM): 0.298 | relative viability (AT9283 + Linsitinib; first compound 0.3 µM): 0.132 | relative viability (AT9283 + Phenformin; first compound 0.003 µM): 0.403 | relative viability (AT9283 + Phenformin; first compound 0.03 µM): 0.328 | relative viability (AT9283 + Phenformin; first compound 0.09487 µM): 0.273 | relative viability (AT9283 + Phenformin; first compound 0.3 µM): 0.255

HARA
relative viability (Erlotinib + Palbociclib; first compound 0.02 µM): 0.233 | relative viability (Erlotinib + Palbociclib; first compound 0.2 µM): 0.224 | relative viability (Erlotinib + Palbociclib; first compound 0.6325 µM): 0.241 | relative viability (Erlotinib + Palbociclib; first compound 2 µM): 0.188 | relative viability (Erlotinib + Navitoclax; first compound 0.02 µM): 1.16 | relative viability (Erlotinib + Navitoclax; first compound 0.2 µM): 1.08 | relative viability (Erlotinib + Navitoclax; first compound 0.6325 µM): 0.88 | relative viability (Erlotinib + Navitoclax; first compound 2 µM): 0.964 | relative viability (AT9283 + Palbociclib; first compound 0.003 µM): 0.265 | relative viability (AT9283 + Palbociclib; first compound 0.03 µM): 0.23 | relative viability (AT9283 + Palbociclib; first compound 0.09487 µM): 0.135 | relative viability (AT9283 + Palbociclib; first compound 0.3 µM): 0.141 | relative viability (AT9283 + Linsitinib; first compound 0.003 µM): 0.428 | relative viability (AT9283 + Linsitinib; first compound 0.03 µM): 0.879 | relative viability (AT9283 + Linsitinib; first compound 0.09487 µM): 0.0968 | relative viability (AT9283 + Linsitinib; first compound 0.3 µM): 0.0955 | relative viability (AT9283 + Phenformin; first compound 0.003 µM): 0.499 | relative viability (AT9283 + Phenformin; first compound 0.03 µM): 0.261 | relative viability (AT9283 + Phenformin; first compound 0.09487 µM): 0.208 | relative viability (AT9283 + Phenformin; first compound 0.3 µM): 0.0751

HCC-15
relative viability (Erlotinib + Palbociclib; first compound 0.02 µM): 0.727 | relative viability (Erlotinib + Palbociclib; first compound 0.2 µM): 0.672 | relative viability (Erlotinib + Palbociclib; first compound 0.6325 µM): 0.751 | relative viability (Erlotinib + Palbociclib; first compound 2 µM): 0.71 | relative viability (Erlotinib + Navitoclax; first compound 0.02 µM): 0.735 | relative viability (Erlotinib + Navitoclax; first compound 0.2 µM): 0.68 | relative viability (Erlotinib + Navitoclax; first compound 0.6325 µM): 0.736 | relative viability (Erlotinib + Navitoclax; first compound 2 µM): 0.617 | relative viability (AT9283 + Palbociclib; first compound 0.003 µM): 0.65 | relative viability (AT9283 + Palbociclib; first compound 0.03 µM): 0.681 | relative viability (AT9283 + Palbociclib; first compound 0.09487 µM): 0.187 | relative viability (AT9283 + Palbociclib; first compound 0.3 µM): 0.164 | relative viability (AT9283 + Linsitinib; first compound 0.003 µM): 0.831 | relative viability (AT9283 + Linsitinib; first compound 0.03 µM): 0.424 | relative viability (AT9283 + Linsitinib; first compound 0.09487 µM): 0.155 | relative viability (AT9283 + Linsitinib; first compound 0.3 µM): 0.146 | relative viability (AT9283 + Phenformin; first compound 0.003 µM): 0.464 | relative viability (AT9283 + Phenformin; first compound 0.03 µM): 0.277 | relative viability (AT9283 + Phenformin; first compound 0.09487 µM): 0.106 | relative viability (AT9283 + Phenformin; first compound 0.3 µM): 0.117

HCC-44
relative viability (Erlotinib + Palbociclib; first compound 0.02 µM): 0.991 | relative viability (Erlotinib + Palbociclib; first compound 0.2 µM): 1.03 | relative viability (Erlotinib + Palbociclib; first compound 0.6325 µM): 0.982 | relative viability (Erlotinib + Navitoclax; first compound 0.02 µM): 0.992 | relative viability (Erlotinib + Navitoclax; first compound 0.2 µM): 0.866 | relative viability (Erlotinib + Navitoclax; first compound 0.6325 µM): 1.05 | relative viability (Erlotinib + Navitoclax; first compound 2 µM): 0.868 | relative viability (AT9283 + Palbociclib; first compound 0.003 µM): 0.992 | relative viability (AT9283 + Palbociclib; first compound 0.03 µM): 1 | relative viability (AT9283 + Palbociclib; first compound 0.09487 µM): 0.557 | relative viability (AT9283 + Palbociclib; first compound 0.3 µM): 0.698 | relative viability (AT9283 + Linsitinib; first compound 0.003 µM): 0.628 | relative viability (AT9283 + Linsitinib; first compound 0.03 µM): 0.745 | relative viability (AT9283 + Linsitinib; first compound 0.09487 µM): 0.148 | relative viability (AT9283 + Linsitinib; first compound 0.3 µM): 0.14 | relative viability (AT9283 + Phenformin; first compound 0.003 µM): 0.124 | relative viability (AT9283 + Phenformin; first compound 0.03 µM): 0.169 | relative viability (AT9283 + Phenformin; first compound 0.09487 µM): 0.106 | relative viability (AT9283 + Phenformin; first compound 0.3 µM): 0.0704
